Numbered stars: 1 amine (or outer) side, 2 acyl side, 3 side chain; on linkers, the order of the positions; unused ones are H or OH. Square brackets hold non-standard residues; d marks the D form. Peptide text beside a SMILES is read from it. * marks the point of attachment. dNle = CCCC[C@@H](N)C(=O)O; Piperidide = C1CCN(*)CC1; Pyrrolidide = C1CCN(*)C1; dAbu = CC[C@@H](N)C(=O)O; Boc = CC(C)(C)OC(=O)*; CO = O=C([*:1])[*:2]; NHtBu = CC(C)(C)N*; Moc = COC(=O)*
target: T1, ETB receptor (Sus scrofa, UniProt P35463); test: Endothelin binding inhibition test (^125I-endothelin-1, porcine cerebellum membrane suspension); details: 1.1 µM of the test compound, triplicate
T1 construct: ETB receptors of porcine cerebellum membrane suspension used in the present experiments; from tissue; host or cells: porcine cerebellum membrane fraction
T1 sequence (P35463 27-443): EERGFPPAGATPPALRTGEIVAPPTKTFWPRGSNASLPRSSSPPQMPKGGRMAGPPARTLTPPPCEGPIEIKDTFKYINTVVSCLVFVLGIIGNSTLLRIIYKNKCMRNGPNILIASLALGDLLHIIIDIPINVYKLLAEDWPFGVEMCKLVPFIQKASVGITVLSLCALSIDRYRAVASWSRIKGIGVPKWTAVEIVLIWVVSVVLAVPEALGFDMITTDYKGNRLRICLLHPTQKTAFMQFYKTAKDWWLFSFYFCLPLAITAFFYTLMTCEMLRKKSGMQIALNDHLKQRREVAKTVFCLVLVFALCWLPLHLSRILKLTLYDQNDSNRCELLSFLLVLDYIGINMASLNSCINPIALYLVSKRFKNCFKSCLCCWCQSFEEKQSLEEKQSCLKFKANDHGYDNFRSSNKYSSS
Procedure: The cerebellum of porcine was homogenized in a buffer solution of 10 mM MOPS, pH 7.4, at 4°C by a polytron. To the homogenate, sucrose was added to a concentration of 20%, and the mixture was centrifuged at 1,000 x g for 15 minutes, and the supernatant was further centrifuged at 10,000 x g for 15 minutes. The supernatant thereof was further centrifuged at 90,000 x g for 40 minutes. The membrane precipitate thereby obtained was suspended in a buffer solution of 5 mM HEPES/Tris, pH 7.4, at a concentration of 3.3 mg/ml.
Then, 16 µl of this membrane suspension was added to 340 µl of 50 mM tris/HCl buffer, pH 7.4, containing […] calcium chloride, 10 µM magnesium chloride, 0.1 mM PMSF, 1 µM pepstatin A, 2 µM leupeptin, 1 mM 1,10-phenanthroline and 0.1% bovine serum albumin. To this suspension, 4 µl of (A) endothelin-1 (for nonspecific binding; 0.2 µM as the final concentration), (B) buffer solution A (for total control binding), or (C) a test compound (1.1 µM as the final concentration), was added. Further, to each suspension, 40 µl of ^125I-endothelin-1 (12000-18000 cpm) was added. These mixtures were incubated at 25°C for 4 hours, then subjected to filtration on a glass filter GF/C and then washed with 5 mM HEPES/Tris, pH 7.4, containing 0.3% bovine serum albumin. Then, the radioactivity trapped by the glass filter was measured, and the ^125I-endothelin-1 binding inhibition D (%) at 1.1 µM of the test compound was determined by the following equation. D(%) = 100 -((C) - (A))/((B) - (A))× 100 [formula]
Each test was performed in triplicate.
The test compounds are indicated by compound Nos.

SMILES	inhibition at 1.1 µM [%]
CCCC[C@@H](NC(=O)[C@@H](Cc1cn(C(=O)OC)c2ccccc12)NC(=O)[C@H](CC(C)C)NC(=O)Nc1ccccc1Cl)C(=O)O [Compound 1]	99
CCCC[C@@H](NC(=O)[C@@H](Cc1cn(C(=O)OCC)c2ccccc12)NC(=O)[C@H](CC(C)C)NC(=O)Nc1ccccc1Cl)C(=O)O [Compound 2]	97
CCCC[C@@H](NC(=O)[C@@H](Cc1cn(C(=O)OC)c2ccccc12)NC(=O)[C@H](CC(C)C)NC(=O)Nc1c(Cl)cccc1Cl)C(=O)O [Compound 3]	94
CCCC[C@@H](NC(=O)[C@@H](Cc1cn(C(=O)OC)c2ccccc12)NC(=O)[C@H](CC(C)C)NC(=O)N1CCCCCC1)C(=O)O [Compound 9]	99
CCCC[C@@H](NC(=O)[C@@H](Cc1cn(C(=O)OC)c2ccccc12)NC(=O)[C@H](CC(C)C)NC(=O)N1CCSCC1)C(=O)O [Compound 10]	89
CCCC[C@@H](NC(=O)[C@@H](Cc1cn(C(=O)OC)c2ccccc12)NC(=O)[C@H](CC(C)C)NC(=O)N1CCCC1)C(=O)O [Compound 11] ({Pyrrolidide-CO}-Leu-[dW](Moc)-[dNle]-OH)	73
CCCC[C@@H](NC(=O)[C@@H](Cc1cn(C(=O)OC)c2ccccc12)NC(=O)[C@H](CC(C)C)NC(=O)N1CCCCC1)C(=O)O [Compound 12] ({Piperidide-CO}-Leu-[dW](Moc)-[dNle]-OH)	96
CCCC[C@@H](NC(=O)[C@@H](Cc1cn(C(=O)OC)c2ccccc12)NC(=O)[C@H](CC(C)C)NC(=O)N1CCSC1)C(=O)O [Compound 13]	72
CCCC[C@@H](NC(=O)[C@@H](Cc1cn(C(=O)OC)c2ccccc12)NC(=O)[C@H](CC(C)C)NC(=O)N(C(C)C)C(C)C)C(=O)O [Compound 14]	99
CCCC[C@@H](NC(=O)[C@@H](Cc1cn(C(=O)OC)c2ccccc12)NC(=O)[C@H](CC(C)C)NC(=O)N(CCC)C1CCCC1)C(=O)O [Compound 17]	95
CCCC[C@@H](NC(=O)[C@@H](Cc1cn(C(=O)OC)c2ccccc12)NC(=O)[C@H](CC(C)C)NC(=O)NC12CC3CC(CC(C3)C1)C2)C(=O)O [Compound 25]	97
CC[C@@H](NC(=O)[C@@H](Cc1cn(C(=O)OC)c2ccccc12)NC(=O)[C@H](CC(C)C)NC(=O)OC(C)(C)C)C(=O)O [Compound 26] (Boc-Leu-[dW](Moc)-[dAbu]-OH)	71
CCCC[C@@H](NC(=O)[C@@H](Cc1cn(C(=O)OC)c2ccccc12)NC(=O)[C@H](CC(C)C)NC(=O)NC(C)(C)C)C(=O)O [Compound 27] ({NHtBu-CO}-Leu-[dW](Moc)-[dNle]-OH)	91
CCCC[C@@H](NC(=O)[C@@H](Cc1cn(C(=O)OC)c2ccccc12)NC(=O)[C@H](CC(C)C)NC(=O)N1CCCCCCC1)C(=O)OC(C)(C)C [Compound 28]	92
CCCC[C@@H](NC(=O)[C@@H](Cc1cn(C(=O)OC)c2ccccc12)NC(=O)[C@H](CC(C)C)NC(=O)N1CCCCCCC1)C(=O)O [Compound 29]	99
CCCC[C@@H](NC(=O)[C@@H](Cc1c(Cl)[nH]c2ccccc12)NC(=O)[C@H](CC(C)C)NC(=O)N1C(C)CCCC1C)C(=O)O (some centres unmarked) [Compound 67]	97
CCCC[C@@H](NC(=O)[C@@H](Cc1c(Cl)[nH]c2ccccc12)NC(=O)[C@H](CC(C)C)NC(=O)N1CCCCCC1)C(=O)O [Compound 68]	93

From EP0555537B1, “Endothelin antagonists” (BANYU PHARMACEUTICAL CO., LTD., priority 1991, dated 1993)
